The test system of this experiment is neuronal. Put plainly: Cytotoxic activity in cultured neuronal cells determined using MTT viability assay. It is filed as functional, cell-based. Background: Tetrazolium dyes change colour on reduction, which living cells bring about.

Each structure is given as a SMILES string.

In the case of `CCCCCCCCCCCCSCC(C)(C)/[N+]([O-])=C/c1ccc(CNC(=O)[C@H](O)[C@@H](O)[C@H](O[C@@H]2O[C@@H](CO)[C@H](O)[C@H](O)[C@@H]2O)[C@H](O)CO)cc1`, the Concentration stood at 400 µM.
